For 35 molecules, IC50 results are on record in patent publication US20150225404A1, “PYRIDINE DERIVATIVE AND MEDICINE” (NIPPON SHINYAKU CO., LTD., priority 2012, published 2015).

Structures can show the parent of a compound that is named as a salt.

The test deals with T1, human mGluR5 (Homo sapiens, UniProt P41594).
T1 construct: expressed in transfected cells
T1 sequence (P41594 21-1212): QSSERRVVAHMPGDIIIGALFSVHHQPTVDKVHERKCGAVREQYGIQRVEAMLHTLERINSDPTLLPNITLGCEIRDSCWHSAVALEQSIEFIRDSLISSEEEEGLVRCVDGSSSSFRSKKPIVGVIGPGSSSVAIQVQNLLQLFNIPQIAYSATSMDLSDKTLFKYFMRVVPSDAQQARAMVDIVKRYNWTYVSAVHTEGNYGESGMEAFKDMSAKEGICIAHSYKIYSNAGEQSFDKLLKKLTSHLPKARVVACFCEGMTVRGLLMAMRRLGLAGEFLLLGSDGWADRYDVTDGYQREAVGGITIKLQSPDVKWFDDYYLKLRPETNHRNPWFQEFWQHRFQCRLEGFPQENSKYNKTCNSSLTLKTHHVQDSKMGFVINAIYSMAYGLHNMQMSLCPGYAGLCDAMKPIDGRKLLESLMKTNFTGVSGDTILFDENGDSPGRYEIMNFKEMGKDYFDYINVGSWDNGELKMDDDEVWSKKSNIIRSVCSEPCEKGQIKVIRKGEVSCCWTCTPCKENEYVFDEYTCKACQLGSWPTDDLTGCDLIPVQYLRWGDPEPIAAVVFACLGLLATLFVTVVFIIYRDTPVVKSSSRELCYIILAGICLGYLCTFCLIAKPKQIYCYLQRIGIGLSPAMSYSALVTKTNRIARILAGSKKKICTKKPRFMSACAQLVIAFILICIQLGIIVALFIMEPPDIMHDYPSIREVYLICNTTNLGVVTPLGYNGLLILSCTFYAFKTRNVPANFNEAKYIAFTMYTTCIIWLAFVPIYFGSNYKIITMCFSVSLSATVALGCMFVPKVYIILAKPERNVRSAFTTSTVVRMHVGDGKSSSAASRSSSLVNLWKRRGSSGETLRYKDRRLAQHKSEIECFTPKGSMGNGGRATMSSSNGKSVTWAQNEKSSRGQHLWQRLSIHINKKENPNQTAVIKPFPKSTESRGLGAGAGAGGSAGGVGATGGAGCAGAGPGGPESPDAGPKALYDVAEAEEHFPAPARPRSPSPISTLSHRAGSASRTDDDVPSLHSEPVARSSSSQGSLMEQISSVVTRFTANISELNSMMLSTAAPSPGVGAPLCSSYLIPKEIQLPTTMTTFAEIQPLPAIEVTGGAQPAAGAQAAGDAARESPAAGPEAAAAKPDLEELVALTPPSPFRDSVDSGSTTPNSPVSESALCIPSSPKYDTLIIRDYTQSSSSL
Briefly: Experiment for receptor function of mGluR5 (Ca2+-dependent fluorescence, FLIPR, CHO-K1 cells stably expressing human mGluR5). It counts as cell-based. The note with it: L-glutamic acid 10 μM, Fluo-4 fluorescence. How it is done: Stable expression cells in which the human mGluR5 gene had been introduced into a Chinese hamster ovary cell (CHO-K1) were used for evaluation. The cells were suspended in a growth medium (MEM-α (D8042, available from Sigma) containing 10% inactivated FBS (Cat. No. 171012, available from CCB) and 2 mM glutamax (Cat. No. 35050, available from GIBCO)) and seeded on a black clear-bottom 96-well plate at 100,000 cells per well. One day after seeding, the medium was replaced by a medium (Hanks' balanced salt solution (HBSS buffer solution) (20 mM HEPES, 2.5 mM probencide (165-15472, available from Wako Pure Chemical Industries, Ltd.), and 10×HBSS (14065-056, available from Gibco) diluted 10 times, pH 7.4)) containing a calcium-sensitive dye Fluo-4 AM at a final concentration of […] (F312, available from Dojindo Laboratories) and Pluronic F-127 at a final concentration of 0.0145% (P-2443, available from Sigma), followed by incubation at 37° C. for one hour, thereby loading Fluo-4 AM into the cells.
Subsequently, the cells were washed twice with an HBSS buffer solution, to which was subsequently added the same buffer solution. Twenty minutes thereafter, the plate was transferred into a fluorescence screening system (FLIPR TETRA, available from Molecular Devices, LLC) and measured for a Ca^2+-dependent fluorescence change in the cells.
First of all, a fluorescence baseline was measured, and thereafter, fluorescence measurement was performed for 2 minutes while adding a test substance, an excessive amount of 6-methyl-2-(phenylethynyl)pyridine (hereinafter referred to as “MPEP”) (final concentration: 10 μM), or the medium. Thereafter, fluorescence measurement was carried out for one minute while adding L-glutamic acid (final concentration: 10 μM).
While taking a fluorescence intensity caused by L-glutamic acid as 100% and a fluorescence intensity caused by L-glutamic acid in the presence of MPEP as 0%, respectively, function inhibitory activity against human mGluR5 was evaluated from the fluorescence intensity caused by L-glutamic acid in the presence of the test substance at each concentration, and an IC50 value was estimated according to a logistic equation (SAS System).
As usually defined, the IC50 is the concentration at which inhibition is half-maximal. Turning to `COCc1cccc(COc2cc(-c3cncnc3)c3c(n2)CCCC3)n1` [Example 160, 2-{[6-(Methoxymethyl)pyridin-2-yl]methoxy}-4-(pyrimidin-5-yl)-5,6,7,8-tetrahydroquinoline hydrochloride], the IC50 amounted to 152 nM.
`Cc1ccc(-c2cc(OCc3ccccn3)nc3c2CCC3)cc1F` [Example 64, 4-(3-Fluoro-4-methylphenyl)-2-(pyridin-2-ylmethoxy)-6,7-dihydro-5H-cyclopenta[b]pyridine] yielded an IC50 of 297 nM.
`CCC1CCc2c(-c3cncnc3)cc(OCc3ccccn3)nc21` (centres unmarked) [Example 240, 7-Ethyl-2-(pyridin-2-ylmethoxy)-4-(pyrimidin-5-yl)-6,7-dihydro-5H-cyclopenta[b]pyridine] showed an IC50 of 24 nM.
Next, `Clc1cnc(-c2cc(OCc3ccccn3)nc3c2CCCC3)cn1` [Example 196, 4-(5-Chloropyrazin-2-yl)-2-(pyridin-2-ylmethoxy)-5,6,7,8-tetrahydroquinoline hydrochloride]: 170 nM; `OCc1cncc(-c2cc(OCc3ccccn3)nc3c2CCCC3)c1` [Example 122, {5-[2-(Pyridin-2-ylmethoxy)-5,6,7,8-tetrahydroquinolin-4-yl]pyridin-3-yl}methanol hydrochloride]: 72.7 nM; `CC(C)(O)c1cncc(-c2cc(OCc3ccccn3)nc3c2CCC3)n1` [Example 55, 2-{6-[2-(Pyridin-2-ylmethoxy)-6,7-dihydro-5H-cyclopenta[b]pyridin-4-yl]pyrazin-2-yl}propan-2-ol]: 348 nM.
Molecule `N#Cc1cccc(COc2cc(-c3cncc(CO)n3)c3c(n2)CCC3)n1` [Example 56, 6-[({4-[6-(Hydroxymethyl)pyrazin-2-yl]-6,7-dihydro-5H-cyclopenta[b]pyridin-2-yl}oxy)methyl]pyridine-2-carbonitrile] registered an IC50 of 495 nM.
Take `Oc1cc(F)cc(-c2cc(OCc3ccccn3)nc3c2CCC3)c1` [Example 68, 3-Fluoro-5-[2-(pyridin-2-ylmethoxy)-6,7-dihydro-5H-cyclopenta[b]pyridin-4-yl]phenol]: half-maximal inhibition (IC50) required 92 nM.
For the molecule `Clc1ccc(COc2cc(-c3cncnc3)c3c(n2)CCC3)s1` [Example 35, 2-[(5-Chlorothiophen-2-yl)methoxy]-4-(pyrimidin-5-yl)-6,7-dihydro-5H-cyclopenta[b]pyridine], the IC50 was determined as 58 nM.
Next, `CCc1cncc(-c2cc(OCc3ccccn3)nc3c2CCCC3)n1` [Example 202, 4-(6-Ethylpyrazin-2-yl)-2-(pyridin-2-ylmethoxy)-5,6,7,8-tetrahydroquinoline]: 43 nM; `Cc1cccnc1COc1cc(-c2cncnc2)c2c(n1)CCCC2` [Example 153, 2-[(3-Methylpyridin-2-yl)methoxy]-4-(pyrimidin-5-yl)-5,6,7,8-tetrahydroquinoline]: 316 nM.
For the molecule `N#Cc1cccc(COc2cc(-c3cccnc3)c3c(n2)CCC3)c1` [Example 245, 3-({[4-(Pyridin-3-yl)-6,7-dihydro-5H-cyclopenta[b]pyridin-2-yl]oxy}methyl)benzonitrile], the IC50 is 39 nM.
As to `Cc1ccnc(COc2cc(-c3cccnc3)c3c(n2)CCCC3)c1` [Example 85, 2-[(4-Methylpyridin-2-yl)methoxy]-4-(pyridin-3-yl)-5,6,7,8-tetrahydroquinoline], the IC50 turned out to be 178 nM.
Regarding `Cc1cccc(COc2cc(-c3cncnc3)c3c(n2)CCCC3)n1` [Example 152, 2-[(6-Methylpyridin-2-yl)methoxy]-4-(pyrimidin-5-yl)-5,6,7,8-tetrahydroquinoline], the IC50 came to 44.8 nM.
`c1ccc(COc2cc(-c3cccnc3)c3c(n2)CCCCC3)nc1` [Example 232, 4-(Pyridin-3-yl)-2-(pyridin-2-ylmethoxy)-6,7,8,9-tetrahydro-5H-cyclohepta[b]pyridine] showed an IC50 of 28.9 nM.
For `N#Cc1cncc(-c2cc(OCc3ccccn3)nc3c2CCCC3)c1` [Example 113, 5-[2-(Pyridin-2-ylmethoxy)-5,6,7,8-tetrahydroquinolin-4-yl]pyridine-3-carbonitrile hydrochloride], the IC50 came to 68.8 nM.
Next, `Fc1ccnc(-c2cc(OCc3ccccn3)nc3c2CCCC3)c1` [Example 223, 4-(4-Fluoropyridin-2-yl)-2-(pyridin-2-ylmethoxy)-5,6,7,8-tetrahydroquinoline]: 47.3 nM; `c1ccc(COc2cc(-c3cccnn3)c3c(n2)CCC3)nc1` [Example 271, 4-(Pyridazin-3-yl)-2-(pyridin-2-ylmethoxy)-6,7-dihydro-5H-cyclopenta[b]pyridine]: 92 nM; `Fc1cccc(COc2cc(-c3cncnc3)c3c(n2)CCCC3)c1` [Example 281, 2-[(3-Fluorobenzyl)oxy]-4-(pyrimidin-5-yl)-5,6,7,8-tetrahydroquinoline]: 94 nM.
Next, `Cc1ncc(-c2cc(OCc3ccc(C#N)cc3)nc3c2CCC3)cn1` [Example 261, 4-({[4-(2-Methylpyrimidin-5-yl)-6,7-dihydro-5H-cyclopenta[b]pyridin-2-yl]oxy}methyl)benzonitrile]: 64 nM; `COc1cncc(-c2cc(OCc3ccccn3)nc3c2CCCC3)n1` [Example 205, 4-(6-Methoxypyrazin-2-yl)-2-(pyridin-2-ylmethoxy)-5,6,7,8-tetrahydroquinoline hydrochloride]: 93 nM; `Fc1cc(-c2cc(OCc3ccccn3)nc3c2CCC3)ccn1` [Example 73, 4-(2-Fluoropyridin-4-yl)-2-(pyridin-2-ylmethoxy)-6,7-dihydro-5H-cyclopenta[b]pyridine]: 16.2 nM.
Consider `c1csc(COc2cc(-c3cncnc3)c3c(n2)CCC3)c1` [Example 34, 4-(Pyrimidin-5-yl)-2-(thiophen-2-ylmethoxy)-6,7-dihydro-5H-cyclopenta[b]pyridine], for which the IC50 was 15 nM.
`Clc1ncncc1-c1cc(OCc2ccccn2)nc2c1CCCC2` [Example 176, 4-(4-Chloropyrimidin-5-yl)-2-(pyridin-2-ylmethoxy)-5,6,7,8-tetrahydroquinoline hydrochloride] yielded an IC50 of 70.8 nM.
Next, `c1ccc(COc2cc(-c3cnccn3)c3c(n2)CCC3)nc1` [Example 53, 4-(Pyrazin-2-yl)-2-(pyridin-2-ylmethoxy)-6,7-dihydro-5H-cyclopenta[b]pyridine hydrochloride]: 11.4 nM; `Fc1cncc(-c2cc(OCc3ccccn3)nc3c2CCCC3)c1` [Example 107, 4-(5-Fluoropyridin-3-yl)-2-(pyridin-2-ylmethoxy)-5,6,7,8-tetrahydroquinoline hydrochloride]: 81.2 nM; `Cc1cc(COc2cc(-c3cncnc3)c3c(n2)CCC3)ccn1` [Example 256, 2-[(2-Methylpyridin-4-yl)methoxy]-4-(pyrimidin-5-yl)-6,7-dihydro-5H-cyclopenta[b]pyridine]: 62.8 nM.
Next, `Nc1cncc(-c2cc(OCc3ccccn3)nc3c2CCCC3)n1` [Example 206, 6-[2-(Pyridin-2-ylmethoxy)-5,6,7,8-tetrahydroquinolin-4-yl]pyrazin-2-amine hydrochloride]: 36.5 nM; `Fc1cnccc1COc1cc(-c2cncnc2)c2c(n1)CCC2` [Example 32, 2-[(3-Fluoropyridin-4-yl)methoxy]-4-(pyrimidin-5-yl)-6,7-dihydro-5H-cyclopenta[b]pyridine]: 31 nM; `Cc1cccc(COc2cc(-c3cccnc3)c3c(n2)CCCC3)n1` [Example 83, 2-[(6-Methylpyridin-2-yl)methoxy]-4-(pyridin-3-yl)-5,6,7,8-tetrahydroquinoline]: 16.2 nM.
The result for `Nc1cnc(-c2cc(OCc3ccccn3)nc3c2CCCC3)cn1` [Example 207, 5-[2-(Pyridin-2-ylmethoxy)-5,6,7,8-tetrahydroquinolin-4-yl]pyrazin-2-amine] reads 346 nM; that for `N#Cc1cccc(COc2cc(-c3cncnc3)c3c(n2)CCCC3)c1` [Example 279, 3-({[4-(Pyrimidin-5-yl)-5,6,7,8-tetrahydroquinolin-2-yl]oxy}methyl)benzonitrile], 108 nM.
Molecule `Cn1nccc1-c1cc(OCc2ccc(C#N)cn2)nc2c1CCC2` [Example 274, 6-({[4-(1-Methyl-1H-pyrazol-5-yl)-6,7-dihydro-5H-cyclopenta[b]pyridin-2-yl]oxy}methyl)pyridine-3-carbo nitrile] came in with an IC50 of 61 nM.
Next, `Fc1cccc(COc2cc(-c3cncnc3)c3c(n2)CCC3)n1` [Example 24, 2-[(6-Fluoropyridin-2-yl)methoxy]-4-(pyrimidin-5-yl)-6,7-dihydro-5H-cyclopenta[b]pyridine]: 36 nM; `Fc1ccc(COc2cc(-c3cncnc3)c3c(n2)CCCC3)nc1` [Example 145, 2-[(5-Fluoropyridin-2-yl)methoxy]-4-(pyrimidin-5-yl)-5,6,7,8-tetrahydroquinoline]: 74 nM.
